Test results: the METLIN SMRT retention time set (Domingo-Almenara et al. 2019)

Experiment: gradient 5% acetonitrile 3 min, to 50% in 2 min, to 85% in 15 min, held 3 min, 100 µL/min
Settings: column: Zorbax Extend-C18 2.1 x 50 mm; eluents: water / acetonitrile, 0.1% formic acid
Method in brief: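 Retention times come from adduct peaks that were picked computationally and then checked by hand. The standards, pure and pooled in mixtures of ~100 molecules, were run on a Zorbax Extend-C18 column (2.1 × 50 mm, 1.8 μm) at 100 μL/min with water and acetonitrile, each with 0.1% formic acid. Detection was by quadrupole time-of-flight mass spectrometry in positive and negative ionization mode, with a dead volume of 40 μL and a dwell volume of 900 μL.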
Compound `O=C(CCc1cc2ccccc2[nH]c1=O)N1CCN(c2ncccn2)CC1` has an RP-LC retention time of 645 s.
For `COC(=O)CC(=O)Nc1nnc(SCc2nnc(-c3ccccc3C)o2)s1`, the RP-LC retention time was 758 s.
Compound `COc1cccc2cc(C(=O)N3CC(c4nc(-c5cccs5)no4)C3)oc12` has an RP-LC retention time of 856 s.
`CCn1cc(C(CNC(=O)Nc2cccc(SC)c2)c2cccnc2)c2ccccc21` (stereo unspecified) showed an RP-LC retention time of 786 s.
For `CC(C)n1cnc(S(=O)(=O)N2CCCC(C(=O)N3CCN(c4ccccn4)CC3)C2)c1` (stereo unspecified), the RP-LC retention time was 581 s.
For `COCc1c(C(=O)O)nnn1-c1ccc(C)cc1F`, the RP-LC retention time was 722 s.
For `Cc1oc2ncnc(N3CCCC(C(=O)NCc4cccnc4)C3)c2c1C` (stereo unspecified), the RP-LC retention time was 593 s.
Compound `O=C1CCCN1CN(C(=O)c1ccccc1F)c1nc2ccccc2s1` has an RP-LC retention time of 866 s.
`CCc1noc(NC(C)=O)c1-c1ccc(C)c(S(=O)(=O)Nc2cccc(C#N)c2)c1` gave an RP-LC retention time of 776 s.
In the case of `Cc1noc2nc(CCC(=O)NC(C)c3ccccc3)nc(N3CCCC3)c12` (stereo unspecified), the RP-LC retention time is reported as 790 s.
Compound `COc1ccc(-c2noc(-c3nc(-c4cccnc4)no3)n2)cc1OC` has an RP-LC retention time of 893 s.
`COc1ncc(C(=O)Nc2ccc(Cl)cc2)c(C)n1` showed an RP-LC retention time of 786 s.
`Cc1cnn(CC(=O)N2CC(n3cc(COc4ccc(F)cc4)nn3)C2)c1` gave an RP-LC retention time of 714 s.
Work on `Cc1nc(-c2csc(S(=O)(=O)N3CCC(C(=O)Nc4ccccn4)CC3)c2)no1` yielded an RP-LC retention time of 740 s.
`Cc1ccc(CN2CC(=O)N(c3cccc(Cl)c3)[C@@H]3CS(=O)(=O)C[C@@H]32)cc1` gave an RP-LC retention time of 917 s.
`O=C(Cn1nc2c(Oc3cccc(F)c3)nccn2c1=O)Nc1ccccc1` gave an RP-LC retention time of 810 s.
For `CCc1nc2cc(-c3noc(Cc4ccc(OC)cc4)n3)ccc2o1`, the RP-LC retention time was 1030 s.
In the case of `COc1cccc(C(O)CN2CCN(C3CCCCC3)CC2)c1` (stereo unspecified), the RP-LC retention time is reported as 548 s.
Compound `CC(=O)N1CCN(C(=O)c2ccc(C(=O)O)cc2)CC1` has an RP-LC retention time of 530 s.
Compound `FC(F)(F)c1cc(-c2cccs2)n(-c2nc(-c3ccccc3)cs2)n1` has an RP-LC retention time of 1450 s.
With `CCCNC(=O)C1CCCN(C(=O)c2[nH]c(C)c(C)c2C)C1` (stereo unspecified) the RP-LC retention time was 721 s.
Compound `CC(=O)c1cccc(NC(=O)N2CCN(c3cnn4c(C)nnc4c3)CC2)c1` has an RP-LC retention time of 600 s.
In the case of `COCCN1C(=O)c2ccccc2C(C(=O)NCCCN2CCC(C)CC2)C1c1cccs1` (stereo unspecified), the RP-LC retention time is reported as 640 s.
For `O=C(Nc1nnc(-c2ccc(C(F)(F)F)cc2)o1)c1cc2ccccc2o1`, the RP-LC retention time was 885 s.
For `COc1ccc(-c2nc3cnccn3c2Nc2ccc(C(=O)NCc3ccco3)cc2)cc1`, the RP-LC retention time was 710 s.
In the case of `Cc1cc(NC(=O)C2CCN(C(=O)c3ccco3)CC2)no1`, the RP-LC retention time is reported as 630 s.
Compound `Cc1ccc(CNC(=O)C2CCCN(S(=O)(=O)c3cc(-c4noc(C)n4)cs3)C2)cc1` (stereo unspecified) has an RP-LC retention time of 974 s.
`CCN(CC)CCNC(=O)CCC(=O)N1CCc2c(c(C(=O)N3CCCC3)nn2C)C1` showed an RP-LC retention time of 578 s.
`CCc1cc(=O)n(CC(=O)Nc2ccc(OC)cc2)c(N)n1` gave an RP-LC retention time of 595 s.
In the case of `CC(C)Cc1csc(-c2csc(S(=O)(=O)NCc3ccccc3Cl)c2)n1`, the RP-LC retention time is reported as 1330 s.
In the case of `COc1cccc(C(=O)N2CCc3nc[nH]c3C2)c1OC`, the RP-LC retention time is reported as 555 s.
For `Cc1ccn2cc(C(=O)NCc3cc(F)ccc3F)nc2c1`, the RP-LC retention time was 657 s.
`CCN1CCN(C(=O)C2Cc3cc(S(=O)(=O)N4CCOCC4)ccc3N2C(C)=O)CC1` (stereo unspecified) showed an RP-LC retention time of 578 s.
With `Cc1oc(-c2ccc(C(=O)N3CCN(c4ccccn4)CC3)cc2)nc1CN1CCc2ccccc21` the RP-LC retention time was 766 s.
Compound `COc1cccc(N2CCN(S(=O)(=O)c3nn(C)cc3C(=O)NC3CC3)CC2)c1` has an RP-LC retention time of 818 s.
`Cc1ccc2c(c1)C(=O)NC1(CCN(C(=O)c3ccc(F)c(F)c3)CC1)N2C` showed an RP-LC retention time of 795 s.
`CC(C)CCn1nc2c(S(=O)(=O)N3CCCCCC3)cccn2c1=O` gave an RP-LC retention time of 982 s.
For `O=C(C1COc2ccccc2O1)N1CCc2cc(-c3csc(C4CC4)n3)ccc21` (stereo unspecified), the RP-LC retention time was 1190 s.
`NC(=O)c1oc2ccccc2c1NC(=O)c1cc(=O)c2ccccc2o1` gave an RP-LC retention time of 805 s.
`O=C(NCCc1nc2cccnc2n1Cc1ccccc1)NCc1ccc(F)cc1` gave an RP-LC retention time of 738 s.
For `Cc1ccc(CNC(=O)c2cc3n(n2)CC(C)(C(=O)NCCC(C)C)N(C)C3=O)cc1` (stereo unspecified), the RP-LC retention time was 802 s.
`CCc1noc([C@@H]2CC(F)(F)CN2C(=O)c2ccco2)n1` showed an RP-LC retention time of 755 s.
In the case of `COc1ccc2nc(NC(=O)Cc3csc4nc(-c5ccc(C)c(C)c5)cn34)sc2c1`, the RP-LC retention time is reported as 885 s.
Compound `Cn1c(C(=O)N2CCN(c3ccccn3)CC2)cc2cc(S(=O)(=O)N3CCCCC3)ccc21` has an RP-LC retention time of 699 s.
Work on `Cc1ccc(CNC(=O)c2nnc(-c3ccc(S(=O)(=O)N4CCCC4)cc3)o2)o1` yielded an RP-LC retention time of 852 s.
Work on `COc1ccc(-c2nnc(-c3ccccc3)o2)cc1S(=O)(=O)NC1CCCC1` yielded an RP-LC retention time of 966 s.
`O=C(Nc1ccc(Br)cc1)C1CCN(c2cc(N3CCCC3)ncn2)CC1` gave an RP-LC retention time of 721 s.
For `Cc1cc(=O)n(CC(=O)N2CCc3ccccc32)c(N2CCOCC2)n1`, the RP-LC retention time was 667 s.
`Cc1nnc(N2CCCC(C(=O)NCCCN3CCCC3=O)C2)c2nn(-c3ccccc3)c(C)c12` (stereo unspecified) showed an RP-LC retention time of 616 s.
`COc1ccc(CC(=O)NCCc2c[nH]c3ccc(Cl)cc23)cc1` gave an RP-LC retention time of 848 s.
For `CCS(=O)(=O)Nc1cccc(C2=NN(S(=O)(=O)CC)C(c3ccco3)C2)c1` (stereo unspecified), the RP-LC retention time was 753 s.
With `O=C(CSc1cnc2ccccc2n1)N1CCN(c2ccc(F)cc2)CC1` the RP-LC retention time was 851 s.
Work on `COc1ccc(CC(=O)NCC(c2ccsc2)N2CCc3ccccc3C2)cc1OC` (stereo unspecified) yielded an RP-LC retention time of 573 s.
`Cn1cc2c3c(cccc31)CN(C(=O)c1ccc(F)c(Cl)c1)CC2` showed an RP-LC retention time of 1070 s.
`CC(C)(C)CC(=O)N1C[C@H]2C[C@H](C1)[C@H]1CCCC(=O)N1C2` gave an RP-LC retention time of 654 s.
Work on `O=C(NC1CCCCCC1)c1cn(-c2cc(-c3nc(C4CC4)no3)ccn2)cn1` yielded an RP-LC retention time of 1040 s.
Compound `CCS(=O)(=O)N1CC(=O)N(Cc2ccc(Cl)cc2)C(C)(C(=O)NC2CCCCCCC2)C1` (stereo unspecified) has an RP-LC retention time of 1040 s.
`CNC(=O)C1CCCN(c2nc3ncn(CC(=O)Nc4ccc5c(c4)CCC5)c(=O)c3s2)C1` (stereo unspecified) showed an RP-LC retention time of 688 s.
With `CC1=C(C(=O)Nc2ccccc2C)C(c2ccc(Cl)cc2Cl)NC(=O)N1` (stereo unspecified) the RP-LC retention time was 704 s.
`CCOC(=O)c1noc2ncnc(Nc3ccccc3C)c12` showed an RP-LC retention time of 1010 s.
`CCn1ccc2c(cc(C(=O)Nc3cccc(C(F)(F)F)c3)n2C)c1=O` showed an RP-LC retention time of 880 s.
Compound `CNC(=O)c1ccc(-c2nc3cc(NS(=O)(=O)c4ccc(F)cc4F)ccc3n2C)cc1` has an RP-LC retention time of 645 s.
In the case of `CC(C)NC(=O)N1[C@H]2CC[C@@H]1c1cnc(-c3ccc(F)cc3)nc1C2`, the RP-LC retention time is reported as 839 s.
In the case of `COCCNC(=O)C1CCCN1S(=O)(=O)c1cc2c(cc1Cl)NC(=O)CO2` (stereo unspecified), the RP-LC retention time is reported as 627 s.
Work on `Cc1ccc(CNC(=O)C2CCN(c3cncnc3N3CCCCC3)CC2)o1` yielded an RP-LC retention time of 643 s.
`CCCNC(=O)C1CCCN(C(=O)c2[nH]c(C)c(C(=O)OCC)c2C)C1` (stereo unspecified) gave an RP-LC retention time of 712 s.
